Our source for the IC50 values is patent publication US10793538B2, “Cycloalkenyl hydroxamic acid derivatives and their use as histone deacetylase inhibitors” (The Broad Institute, Inc., priority 2012, dated 2020).

What all share (assay): HDAC isoform inhibition, microfluidic lab-on-a-chip (Caliper) assay
The target in test [1] is HDAC4 (Homo sapiens, UniProt P56524).
Test [2] concerns the target T1, HDAC6 (Homo sapiens, UniProt Q9UBN7).
T1 construct: purchased BPS Bioscience
T1 sequence (Q9UBN7 1-1215): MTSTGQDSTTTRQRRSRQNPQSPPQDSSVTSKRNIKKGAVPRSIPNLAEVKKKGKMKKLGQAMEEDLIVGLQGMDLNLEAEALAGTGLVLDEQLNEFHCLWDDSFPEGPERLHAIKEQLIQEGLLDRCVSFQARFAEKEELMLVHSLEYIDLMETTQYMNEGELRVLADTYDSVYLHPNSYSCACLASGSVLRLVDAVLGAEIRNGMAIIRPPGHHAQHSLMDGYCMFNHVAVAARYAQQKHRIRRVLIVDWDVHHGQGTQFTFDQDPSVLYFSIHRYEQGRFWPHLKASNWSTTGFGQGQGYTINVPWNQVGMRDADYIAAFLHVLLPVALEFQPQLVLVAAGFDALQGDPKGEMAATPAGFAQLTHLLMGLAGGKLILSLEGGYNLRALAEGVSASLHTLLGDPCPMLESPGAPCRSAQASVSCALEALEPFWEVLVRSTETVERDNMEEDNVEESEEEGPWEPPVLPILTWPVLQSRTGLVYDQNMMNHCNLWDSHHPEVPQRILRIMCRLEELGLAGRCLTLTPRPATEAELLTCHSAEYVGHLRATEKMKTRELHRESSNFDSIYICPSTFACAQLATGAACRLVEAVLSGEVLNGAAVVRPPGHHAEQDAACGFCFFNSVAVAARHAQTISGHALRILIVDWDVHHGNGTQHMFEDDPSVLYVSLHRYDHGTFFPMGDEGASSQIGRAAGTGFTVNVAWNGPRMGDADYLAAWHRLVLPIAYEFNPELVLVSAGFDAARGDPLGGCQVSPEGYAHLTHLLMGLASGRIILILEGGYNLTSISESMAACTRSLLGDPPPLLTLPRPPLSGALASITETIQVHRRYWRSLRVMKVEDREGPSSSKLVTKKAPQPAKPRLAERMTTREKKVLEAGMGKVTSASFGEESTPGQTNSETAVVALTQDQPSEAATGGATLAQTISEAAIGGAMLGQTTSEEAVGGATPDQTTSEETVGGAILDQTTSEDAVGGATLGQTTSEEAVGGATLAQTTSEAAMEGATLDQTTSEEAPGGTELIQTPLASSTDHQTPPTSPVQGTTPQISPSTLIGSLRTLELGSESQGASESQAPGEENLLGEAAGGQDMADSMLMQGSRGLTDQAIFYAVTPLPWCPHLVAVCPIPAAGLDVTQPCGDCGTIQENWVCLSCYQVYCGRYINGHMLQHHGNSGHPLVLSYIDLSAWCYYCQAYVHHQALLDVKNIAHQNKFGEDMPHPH
The test is classed as biochemical. The note with it: HDAC isoform 6; 2 μM FAM-labeled acetylated peptide substrate, 60 min, room temperature.

Test [3] deals with T2, HDAC5 (Homo sapiens, UniProt Q9UQL6).
T2 construct: purchased BPS Bioscience
It counts as biochemical. Particulars: HDAC isoform 5; 2 μM FAM-labeled acetylated peptide substrate, 60 min, room temperature.

The target in test [4] is T3, HDAC8 (Homo sapiens, UniProt Q9BY41).
T3 construct: purchased BPS Bioscience
T3 sequence (Q9BY41 1-377): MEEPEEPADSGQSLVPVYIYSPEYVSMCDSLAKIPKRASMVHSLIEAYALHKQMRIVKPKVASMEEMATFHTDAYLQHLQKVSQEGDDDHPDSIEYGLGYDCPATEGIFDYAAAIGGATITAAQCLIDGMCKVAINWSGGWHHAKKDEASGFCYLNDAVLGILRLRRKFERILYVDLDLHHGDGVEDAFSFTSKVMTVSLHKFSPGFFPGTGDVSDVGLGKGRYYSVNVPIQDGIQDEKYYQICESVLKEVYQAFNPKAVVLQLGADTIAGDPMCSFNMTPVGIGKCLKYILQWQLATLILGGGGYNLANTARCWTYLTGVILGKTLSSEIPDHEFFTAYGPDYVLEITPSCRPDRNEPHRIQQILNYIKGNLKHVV
The test is classed as biochemical. Particulars: HDAC isoform 8; 2 μM FAM-labeled acetylated peptide substrate, 60 min, room temperature.

In test [5] the target is T4, HDAC1 (Homo sapiens, UniProt Q13547).
T4 construct: purchased BPS Bioscience
The test is classed as biochemical. The note with it: HDAC isoform 1; 2 μM FAM-labeled acetylated peptide substrate, 60 min, room temperature.

For test [6], the target named is T5, HDAC9 (Homo sapiens, UniProt Q9UKV0).
T5 construct: purchased BPS Bioscience
The test is classed as biochemical. The note with it: HDAC isoform 9; 2 μM FAM-labeled acetylated peptide substrate, 60 min, room temperature.

Test [7] has as its target T6, HDAC7 (Homo sapiens, UniProt Q8WUI4).
T6 construct: purchased BPS Bioscience
T6 sequence (Q8WUI4 1-952): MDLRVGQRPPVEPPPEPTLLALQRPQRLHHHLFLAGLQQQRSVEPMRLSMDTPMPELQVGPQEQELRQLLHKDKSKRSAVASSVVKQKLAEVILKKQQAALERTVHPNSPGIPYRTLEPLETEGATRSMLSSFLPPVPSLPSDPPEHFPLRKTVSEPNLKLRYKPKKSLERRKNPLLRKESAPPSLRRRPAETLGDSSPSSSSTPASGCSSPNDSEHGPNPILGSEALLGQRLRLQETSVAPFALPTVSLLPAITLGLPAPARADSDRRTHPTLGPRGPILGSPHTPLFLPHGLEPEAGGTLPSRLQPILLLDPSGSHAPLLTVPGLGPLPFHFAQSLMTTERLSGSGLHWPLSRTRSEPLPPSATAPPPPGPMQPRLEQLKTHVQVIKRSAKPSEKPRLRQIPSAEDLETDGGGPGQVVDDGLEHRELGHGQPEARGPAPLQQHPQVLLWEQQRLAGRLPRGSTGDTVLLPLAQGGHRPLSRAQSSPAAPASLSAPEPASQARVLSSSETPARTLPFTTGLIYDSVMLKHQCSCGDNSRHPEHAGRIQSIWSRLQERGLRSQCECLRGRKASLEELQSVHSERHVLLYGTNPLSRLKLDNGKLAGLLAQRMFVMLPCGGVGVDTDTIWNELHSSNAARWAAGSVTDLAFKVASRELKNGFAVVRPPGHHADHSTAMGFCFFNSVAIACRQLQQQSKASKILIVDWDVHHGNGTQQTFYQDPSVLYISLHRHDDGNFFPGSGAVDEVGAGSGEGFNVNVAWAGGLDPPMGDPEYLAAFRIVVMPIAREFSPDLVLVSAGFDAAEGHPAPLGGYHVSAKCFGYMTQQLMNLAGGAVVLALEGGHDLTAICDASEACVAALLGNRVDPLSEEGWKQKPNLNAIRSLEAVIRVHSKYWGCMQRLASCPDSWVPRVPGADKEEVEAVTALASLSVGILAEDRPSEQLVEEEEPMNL
It counts as biochemical. The note with it: HDAC isoform 7; 2 μM FAM-labeled acetylated peptide substrate, 60 min, room temperature.

Test [8] has as its target T7, HDAC3 (Homo sapiens, UniProt O15379).
T7 construct: purchased BPS Bioscience
It counts as biochemical. Particulars: HDAC isoform 3; 2 μM FAM-labeled acetylated peptide substrate, 60 min, room temperature.

In test [9] the target is T8, HDAC2 (Homo sapiens, UniProt Q92769).
T8 construct: purchased BPS Bioscience
The test is classed as biochemical. The note with it: HDAC isoform 2; 2 μM FAM-labeled acetylated peptide substrate, 60 min, room temperature.

Chain of HDAC4 (P56524 whole entry): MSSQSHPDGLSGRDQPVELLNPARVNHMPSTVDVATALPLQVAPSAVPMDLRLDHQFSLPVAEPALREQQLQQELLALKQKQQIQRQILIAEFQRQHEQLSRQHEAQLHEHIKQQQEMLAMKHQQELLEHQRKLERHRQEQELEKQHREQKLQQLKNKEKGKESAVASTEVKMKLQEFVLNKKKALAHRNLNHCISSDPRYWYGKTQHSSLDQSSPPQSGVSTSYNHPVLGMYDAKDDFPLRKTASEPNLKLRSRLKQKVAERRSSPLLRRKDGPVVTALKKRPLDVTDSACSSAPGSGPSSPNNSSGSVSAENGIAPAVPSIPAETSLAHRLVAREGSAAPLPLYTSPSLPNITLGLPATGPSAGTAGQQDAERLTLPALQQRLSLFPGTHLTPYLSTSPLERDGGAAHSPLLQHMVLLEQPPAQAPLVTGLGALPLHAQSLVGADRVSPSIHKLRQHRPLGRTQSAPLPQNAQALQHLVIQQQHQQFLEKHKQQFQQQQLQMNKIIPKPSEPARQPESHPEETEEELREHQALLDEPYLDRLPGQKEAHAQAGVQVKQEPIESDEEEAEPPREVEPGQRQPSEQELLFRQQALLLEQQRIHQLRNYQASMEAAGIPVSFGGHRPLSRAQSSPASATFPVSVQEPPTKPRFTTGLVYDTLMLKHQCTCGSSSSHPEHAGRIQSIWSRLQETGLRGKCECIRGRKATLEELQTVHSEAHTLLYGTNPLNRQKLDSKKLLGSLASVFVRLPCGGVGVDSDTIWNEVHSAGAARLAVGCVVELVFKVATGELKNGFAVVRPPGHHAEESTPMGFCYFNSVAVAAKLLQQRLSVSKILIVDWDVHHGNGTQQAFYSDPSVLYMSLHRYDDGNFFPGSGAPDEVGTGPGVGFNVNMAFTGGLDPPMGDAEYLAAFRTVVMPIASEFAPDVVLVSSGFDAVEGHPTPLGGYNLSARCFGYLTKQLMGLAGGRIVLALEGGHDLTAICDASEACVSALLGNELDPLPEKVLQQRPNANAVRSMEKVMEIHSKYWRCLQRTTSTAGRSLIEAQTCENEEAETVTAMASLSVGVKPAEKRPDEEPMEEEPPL
T5 sequence (Q9UKV0 whole entry): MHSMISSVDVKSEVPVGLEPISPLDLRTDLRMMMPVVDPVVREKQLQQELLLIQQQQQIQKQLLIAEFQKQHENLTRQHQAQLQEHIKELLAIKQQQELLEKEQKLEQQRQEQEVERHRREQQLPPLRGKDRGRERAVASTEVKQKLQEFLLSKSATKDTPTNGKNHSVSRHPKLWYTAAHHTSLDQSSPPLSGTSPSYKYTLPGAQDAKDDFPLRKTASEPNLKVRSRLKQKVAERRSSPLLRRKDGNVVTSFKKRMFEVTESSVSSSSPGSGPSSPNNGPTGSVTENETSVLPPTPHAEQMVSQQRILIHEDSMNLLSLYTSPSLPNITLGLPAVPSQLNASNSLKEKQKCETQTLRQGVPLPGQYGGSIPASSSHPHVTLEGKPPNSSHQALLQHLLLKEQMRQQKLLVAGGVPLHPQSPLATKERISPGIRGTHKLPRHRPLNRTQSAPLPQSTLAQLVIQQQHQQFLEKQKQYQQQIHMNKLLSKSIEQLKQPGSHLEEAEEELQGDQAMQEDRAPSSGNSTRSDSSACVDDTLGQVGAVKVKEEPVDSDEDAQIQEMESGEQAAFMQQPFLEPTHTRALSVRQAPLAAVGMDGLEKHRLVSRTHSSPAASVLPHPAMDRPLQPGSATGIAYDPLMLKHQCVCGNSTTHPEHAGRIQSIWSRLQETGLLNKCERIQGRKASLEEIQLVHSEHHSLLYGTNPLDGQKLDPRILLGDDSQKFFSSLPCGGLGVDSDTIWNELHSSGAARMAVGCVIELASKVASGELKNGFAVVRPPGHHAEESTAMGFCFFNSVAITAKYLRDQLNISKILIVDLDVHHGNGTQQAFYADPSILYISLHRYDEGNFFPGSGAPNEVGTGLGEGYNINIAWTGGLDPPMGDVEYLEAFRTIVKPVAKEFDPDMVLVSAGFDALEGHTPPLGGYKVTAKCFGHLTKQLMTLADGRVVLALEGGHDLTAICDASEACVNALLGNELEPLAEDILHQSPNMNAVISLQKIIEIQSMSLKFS
T7 sequence (O15379 whole entry): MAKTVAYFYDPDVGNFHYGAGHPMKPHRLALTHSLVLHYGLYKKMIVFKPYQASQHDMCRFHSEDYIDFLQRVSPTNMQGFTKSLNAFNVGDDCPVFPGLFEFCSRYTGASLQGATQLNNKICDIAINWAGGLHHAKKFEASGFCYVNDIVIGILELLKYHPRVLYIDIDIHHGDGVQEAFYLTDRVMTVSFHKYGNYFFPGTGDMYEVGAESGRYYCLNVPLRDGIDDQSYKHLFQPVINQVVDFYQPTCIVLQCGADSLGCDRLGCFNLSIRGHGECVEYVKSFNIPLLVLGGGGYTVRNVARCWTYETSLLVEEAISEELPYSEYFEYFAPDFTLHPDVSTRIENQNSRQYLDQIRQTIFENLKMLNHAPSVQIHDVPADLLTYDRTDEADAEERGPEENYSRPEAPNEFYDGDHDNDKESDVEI
T7 sequence (Q9Y618 395-489 partner limits assumed): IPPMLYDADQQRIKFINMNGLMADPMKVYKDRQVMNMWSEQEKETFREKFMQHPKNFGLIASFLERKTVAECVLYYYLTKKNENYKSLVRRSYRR
T2 sequence (Q9UQL6 whole entry): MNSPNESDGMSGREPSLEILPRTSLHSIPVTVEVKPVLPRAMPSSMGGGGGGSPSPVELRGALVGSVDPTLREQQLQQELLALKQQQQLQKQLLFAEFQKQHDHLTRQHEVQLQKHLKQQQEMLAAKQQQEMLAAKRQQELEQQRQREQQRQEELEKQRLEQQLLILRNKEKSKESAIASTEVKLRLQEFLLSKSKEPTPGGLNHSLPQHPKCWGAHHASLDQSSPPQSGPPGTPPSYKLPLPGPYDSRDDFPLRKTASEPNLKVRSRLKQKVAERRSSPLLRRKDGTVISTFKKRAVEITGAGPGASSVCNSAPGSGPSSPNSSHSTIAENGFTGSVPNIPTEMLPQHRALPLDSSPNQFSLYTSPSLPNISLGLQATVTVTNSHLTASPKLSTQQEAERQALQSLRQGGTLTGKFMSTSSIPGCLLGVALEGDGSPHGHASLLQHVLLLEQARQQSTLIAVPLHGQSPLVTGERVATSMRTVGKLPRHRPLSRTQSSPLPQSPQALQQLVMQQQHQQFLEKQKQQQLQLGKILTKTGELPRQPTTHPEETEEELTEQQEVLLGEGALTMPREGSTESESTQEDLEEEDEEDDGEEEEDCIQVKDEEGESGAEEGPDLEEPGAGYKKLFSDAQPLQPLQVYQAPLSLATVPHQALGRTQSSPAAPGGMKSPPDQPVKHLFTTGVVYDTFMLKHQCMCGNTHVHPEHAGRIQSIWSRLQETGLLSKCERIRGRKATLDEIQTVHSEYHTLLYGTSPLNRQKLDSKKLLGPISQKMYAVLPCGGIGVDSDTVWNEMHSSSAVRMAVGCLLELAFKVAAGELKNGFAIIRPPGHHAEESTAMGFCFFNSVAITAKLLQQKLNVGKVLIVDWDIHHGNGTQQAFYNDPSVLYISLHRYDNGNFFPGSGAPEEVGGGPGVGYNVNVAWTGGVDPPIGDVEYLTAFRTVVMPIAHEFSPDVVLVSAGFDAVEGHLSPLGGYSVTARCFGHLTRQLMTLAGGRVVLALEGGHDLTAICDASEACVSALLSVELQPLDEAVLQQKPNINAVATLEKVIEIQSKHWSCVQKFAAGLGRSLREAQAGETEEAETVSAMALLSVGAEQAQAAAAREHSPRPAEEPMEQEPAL
T8 sequence (Q92769 whole entry): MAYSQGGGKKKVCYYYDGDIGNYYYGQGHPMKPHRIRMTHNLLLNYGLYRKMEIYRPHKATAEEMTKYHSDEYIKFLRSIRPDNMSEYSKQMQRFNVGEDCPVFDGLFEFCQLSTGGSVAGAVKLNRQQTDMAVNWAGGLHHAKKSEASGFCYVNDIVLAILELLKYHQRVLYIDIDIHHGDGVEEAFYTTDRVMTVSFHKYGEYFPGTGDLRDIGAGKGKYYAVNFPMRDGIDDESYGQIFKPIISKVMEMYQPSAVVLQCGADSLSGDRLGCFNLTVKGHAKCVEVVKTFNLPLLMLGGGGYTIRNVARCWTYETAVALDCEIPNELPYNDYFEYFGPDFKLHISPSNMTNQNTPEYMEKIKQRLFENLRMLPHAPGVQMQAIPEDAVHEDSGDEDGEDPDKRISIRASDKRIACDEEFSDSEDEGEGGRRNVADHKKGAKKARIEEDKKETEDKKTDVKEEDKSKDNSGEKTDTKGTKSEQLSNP
T4 sequence (Q13547 whole entry): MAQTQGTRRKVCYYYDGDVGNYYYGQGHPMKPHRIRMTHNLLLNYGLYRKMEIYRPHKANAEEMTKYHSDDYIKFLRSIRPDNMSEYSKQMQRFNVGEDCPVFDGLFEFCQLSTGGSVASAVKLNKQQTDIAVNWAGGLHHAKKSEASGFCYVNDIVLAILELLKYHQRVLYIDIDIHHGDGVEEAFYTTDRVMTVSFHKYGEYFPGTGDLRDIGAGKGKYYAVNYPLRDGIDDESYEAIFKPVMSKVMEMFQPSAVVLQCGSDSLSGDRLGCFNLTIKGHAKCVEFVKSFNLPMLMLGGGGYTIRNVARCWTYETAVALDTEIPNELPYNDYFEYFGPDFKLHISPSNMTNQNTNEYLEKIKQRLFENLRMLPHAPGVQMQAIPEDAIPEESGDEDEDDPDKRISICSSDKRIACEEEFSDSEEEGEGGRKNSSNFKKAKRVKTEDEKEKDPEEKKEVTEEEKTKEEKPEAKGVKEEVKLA

Consider `COc1ccc(CNC2C=C(C(=O)NO)CCC2)cc1` (stereo not shown) [Compound 7A, N-Hydroxy-3-((4-Methoxybenzyl)Amino)Cyclohex-1-Enecarboxamide], for which the IC50 (as a rule, the point on the concentration scale where inhibition reaches its midpoint) in test [1] was above 33 µM; in [2], 2.68 µM; in [3], above 33 µM; in test [4] it was 2.16 µM; in test [5] it was above 33 µM; in test [6], above 33 µM. The IC50 in test [7], in [8] and in test [9] was above 33 µM each time.

Take `O=C(NO)C1=CC(Sc2ccccc2)CCC1` (stereo not shown) [Compound 10A, N-Hydroxy-3-(Phenylthio)Cyclohex-1-Enecarboxamide]: the IC50 in [1] came to 7.93 µM; in test [2], 0.106 µM; in test [3], 10.9 µM; in test [4], 0.055 µM; in [5], 2.1 µM; in test [6], 16 µM. Also, the IC50 stood at 6.91 µM in test [7], 3.22 µM in [8] and 1.7 µM in [9].

With `COc1ccc(C(=O)N2CCC=C(C(=O)NO)C2)cc1` [Compound 12A], the IC50 is above 33 µM in test [1]; 6.2 µM in test [2]; above 33 µM in [3]; 23.2 µM in test [4]; above 33 µM in test [5]; above 33 µM in [6]. In addition, the IC50 in test [7], in test [8] and in [9] was above 33 µM each time.

Take `O=C(NO)C1=CCCCC1` [Compound 19A, N-Hydroxycyclohex-1-Enecarboxamide]: the IC50 in [1] stood at 10.1 µM; in test [2] it was 0.011 µM; in test [3] it was 15.2 µM; in [4], 0.523 µM; in [5] it was 0.423 µM; in test [6], 11.7 µM. Further, the IC50 in [7] turned out to be 2.32 µM; in [8], 0.493 µM; in [9], 1.4 µM.

With `O=C(NO)C1=CCOCC1` [Compound 20A, N-Hydroxy-3,6-Dihydro-2H-Pyran-4-Carboxamide], the IC50 in test [1] is above 33 µM; in test [2], 0.016 µM; in [4], 1.38 µM; in test [5], 1.08 µM; in test [6], above 33 µM; in test [7] it was 26.8 µM. Besides, the IC50 worked out at 1.4 µM in [8] and 1.9 µM in [9].

With `O=C(NO)C1=CCCC1` [Compound 21A, N-Hydroxycyclopent-1-Enecarboxamide], the IC50 in [1] is 29.7 µM; in test [2], 0.024 µM; in [3], 21.1 µM; in test [4], 1.85 µM; in test [5], 0.727 µM; in test [6], above 33 µM. Also, the IC50 in [8] worked out at 0.734 µM; in test [9], 3.44 µM.

As for `O=C(NO)C1=C[C@@H](O)[C@@H](O)[C@H](O)C1` [Compound 22A, (3R,4S,5R)-N,3,4,5-Tetrahydroxycyclohex-1-Enecarboxamide], the IC50 in [1] is above 33 µM; in test [2], above 33 µM; in test [3], above 33 µM; in test [4] it was 9.14 µM; in test [5], above 33 µM; in test [6] it was above 33 µM. Besides, the IC50 in test [7], in test [8] and in [9] was above 33 µM each time.

In the case of `CC1=C(C(=O)NO)Cc2ccccc21` [Compound 29A, N-Hydroxy-3-Methyl-1H-Indene-2-Carboxamide], the IC50 in test [1] stood at 16 µM; in [2], 0.049 µM; in test [3], 23.6 µM; in [4], 1.13 µM; in test [5], 0.275 µM; in [6] it was 11.2 µM. The IC50 in test [7] amounted to 17.9 µM; in test [8], 0.713 µM; in test [9], 0.584 µM.

As to `CN1CCC=C(C(=O)NO)C1` [Compound 30A, N-Hydroxy-1-Methyl-1,2,5,6-Tetrahydropyridine-3-Carboxamide], the IC50 is above 33 µM in test [1]; above 33 µM in test [2]; above 33 µM in test [3]; 2.63 µM in test [4]; above 33 µM in test [5]; above 33 µM in [6]. Besides, the IC50 in [7], in [8] and in test [9] was above 33 µM each time.

Regarding `Cc1ccc(S(=O)(=O)N2CC=C(C(=O)NO)CC2)cc1` [Compound 31A, N-Hydroxy-1-Tosyl-1,2,3,6-Tetrahydropyridine-4-Carboxamide], the IC50 came to 14.8 µM in [1]; 0.014 µM in test [2]; 7.41 µM in test [3]; 0.494 µM in test [4]; 0.084 µM in [5]; 13 µM in [6]. Further, the IC50 in test [7] stood at 11.6 µM; in [8], 0.099 µM; in test [9], 0.375 µM.

In the case of `O=C(NO)C1=Cc2ccccc2CC1` [Compound 32A, N-Hydroxy-3,4-Dihydronaphthalene-2-Carboxamide], the IC50 in test [1] was determined as 4.65 µM; in test [2] it was 0.014 µM; in test [3], 14 µM; in test [4], 0.626 µM; in test [5], 1.86 µM; in test [6] it was 4.08 µM. The half-inhibitory concentration (IC50) turned out to be 2.46 µM in [7], 2.32 µM in test [8] and 2.6 µM in test [9].
